pIC50, pKd: −log10 of the molar value. “Also recorded” adds a separate entry of the source.
Key:
CYP106A2 = CYP106A2 (Priestia megaterium, UniProt Q06069); assay: Absorbance difference spectra titration of CYP106A2; type: binding, bacterial; conditions: 1 µM CYP106A2; for difference spectrum increase / λmax on binding to CYP106A2: 393 nm = type I, 435 nm = heme Fe-isonitrile bond
Protocol: Fig. 5 CYP106A2 interaction with steroidal isonitriles. […] Maximum concentration of 2 (light blue trace) is 20 µM. […] Maximum concentration of 4 is ~10 µM (blue trace). C Overlay of 800 MHz ^1H,^15N-TROSY-HSQC spectra of ^15N-Gly-labeled CYP106A2 with levopimaric acid p-benzoquinone Diels-Alder adduct bound after reduction with sodium dithionite and treatment with carbon monoxide (red), or with 7,17-(bis)isonitrile 4 (blue) after anaerobic reduction with sodium dithionite.

CYP17A1 [1] = molecular target: T1, CYP17A1 (Homo sapiens, UniProt P05093); assay: Ligand binding assay (UV-visible difference spectra titration); conditions: for Soret peak after titration (heme spectral shift from 417 nm water-bound): ferric CYP17A1, 430 nm = Fe—C isonitrile bond, 424 nm = type II Fe—N
T1 construct: made in house
T1 sequence (P05093 1-508): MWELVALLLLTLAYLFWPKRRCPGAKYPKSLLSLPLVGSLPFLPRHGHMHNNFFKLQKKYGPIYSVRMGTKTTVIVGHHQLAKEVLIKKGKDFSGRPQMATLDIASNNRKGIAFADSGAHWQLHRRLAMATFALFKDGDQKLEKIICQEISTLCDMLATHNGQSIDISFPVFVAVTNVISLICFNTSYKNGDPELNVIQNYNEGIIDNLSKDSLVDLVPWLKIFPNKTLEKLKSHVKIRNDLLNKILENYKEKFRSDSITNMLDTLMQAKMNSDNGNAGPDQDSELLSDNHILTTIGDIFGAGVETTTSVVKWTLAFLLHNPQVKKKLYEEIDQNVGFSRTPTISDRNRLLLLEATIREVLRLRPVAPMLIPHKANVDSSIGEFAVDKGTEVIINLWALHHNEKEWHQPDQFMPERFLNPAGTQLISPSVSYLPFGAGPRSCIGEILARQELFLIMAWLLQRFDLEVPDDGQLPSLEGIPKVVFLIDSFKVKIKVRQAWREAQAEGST
Protocol: (§1) (Adapted from DeVore, et al.)[25] Ligand interaction with the heme iron was evaluated by titrating ligands into a cuvette containing purified CYP17A1[14], CYP2D6 L230D/L231R[26], or CYP3A4[27] and measured using a UV-visible scanning spectrophotometer. Enzyme was diluted to 0.2 µM in 100 mM potassium phosphate buffer (pH 7.4), 20% glycerol, and 100 mM sodium chloride and divided equally between two 5 mL cuvettes to evaluate high-affinity binding. Ligands dissolved in dimethylsulfoxide (DMSO) were added to the sample cuvette and an equal volume of DMSO to the reference cuvette. Difference spectra were recorded from 300 to 500 nm after equilibration of enzyme and ligand. Binding to the enzyme was measured as the difference in maximal and minimal absorbance: A387—A419 for pregnanolone and 3-formyl pregnanolone, and A435—A393 for compound 1 with CYP17A1; A434—A414 for compound 1 with CYP3A4 and CYP2D6. The dissociation constant and maximum spectral change were calculated using tight-binding or quadratic equation. All data fitting was accomplished using GraphPad Prism 9. Details of fitting are provided in Supplementary Information, and numerical data used to generate graphs in Figs. 2, 4 and 5 are provided in Supplementary Data 3 in Excel format.

CYP17A1 [2] = molecular target: T2, CYP17A1 (Homo sapiens, UniProt P05093); assay: biochemical
T2 construct: made in house
T2 sequence (P05093 24-508 limits assumed): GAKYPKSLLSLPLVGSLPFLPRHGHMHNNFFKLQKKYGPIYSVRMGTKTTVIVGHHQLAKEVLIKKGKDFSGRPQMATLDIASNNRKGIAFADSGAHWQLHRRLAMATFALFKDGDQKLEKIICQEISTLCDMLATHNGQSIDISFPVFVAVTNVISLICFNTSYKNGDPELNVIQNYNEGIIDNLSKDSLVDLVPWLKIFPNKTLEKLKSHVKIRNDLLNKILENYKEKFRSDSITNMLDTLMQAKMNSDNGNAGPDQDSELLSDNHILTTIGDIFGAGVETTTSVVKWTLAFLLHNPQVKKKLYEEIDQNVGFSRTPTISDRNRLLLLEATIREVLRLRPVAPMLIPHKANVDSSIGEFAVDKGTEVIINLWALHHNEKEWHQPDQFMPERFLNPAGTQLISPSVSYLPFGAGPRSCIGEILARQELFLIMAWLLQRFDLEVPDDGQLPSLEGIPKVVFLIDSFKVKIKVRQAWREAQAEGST
Protocol: Metabolic activity of CYP17A1 was evaluated by measuring 17α-hydroxylation of progesterone as detected by HPLC with UV detection at 240 nm. A 1:4 ratio of CYP17A1 to recombinant NADPH-cytochrome P450 reductase was mixed and incubated on ice for 20 min. […] Reaction vials were warmed to 37 °C for 3 min, then catalysis was initiated by adding NADPH to a final concentration of 1 mM. After 10 min, metabolism was quenched by adding 300 µL of 20% trichloroacetic acid and placed on ice. The reaction vials were centrifuged to pellet the precipitated protein, then the supernatant was injected onto a C18 column for HPLC identification of product. Metabolite elution was normalized to β-estradiol as an internal standard. A standard curve of known product concentrations was used to convert normalized area under curve to amount of product produced. A four-parameter variable-slope equation was used to fit the data and calculate IC50 values for inhibitors using GraphPad Prism 9.
195 Metabolic activity of CYP17A1 was evaluated by measuring 17α-hydroxylation of progesterone as detected
196 by HPLC with UV detection at 240 nm. A 1:4 ratio of CYP17A1 to recombinant NADPH-cytochrome P450
197 reductase was mixed and incubated on ice for 20 minutes. This mixture was added to buffer (50 mM Tris, pH
199 Reaction vials were warmed to 37 °C for three minutes, then catalysis was initiated by adding NADPH to a
200 final concentration of 1 mM. After 10 minutes, metabolism was quenched by adding 300 µL of 20%
201 trichloroacetic acid and placed on ice. The reaction vials were centrifuged to pellet the precipitated protein,
202 then the supernatant was injected onto a C18 column (Phenomenex, Luna, 50 x 4.6 mm) for HPLC. The 30-
203 minute HPLC method ran at 0.8 mL/min and started with a mobile phase of 60% acetonitrile, 40% water with
204 0.2% acetic acid for five minutes, in creased to 80% acetonitrile over 10 minutes, held at 80% acetonitrile for
205 five minutes, 100% acetonitrile for five minutes, then returned to 60% acetonitrile to prepare for the next
206 sample. Metabolite elution was normalized to β-estradiol as an internal standard. A standard curve of known
207 product concentrations was used to convert normalized area under curve to amount of product produced. A
208 four-parameter variable-slope equation (Y=Ymin + (Ymax-Ymin)/(1+(IC50/X)^(Hill Slope))) was used to fit the data
209 and calculate IC50 values for inhibitors using GraphPad Prism 9.

CYP3A4 = molecular target: T3, CYP3A4 (Homo sapiens, UniProt P08684); assay: in vitro; type: binding
T3 construct: made in house
T3 sequence (P08684 whole entry): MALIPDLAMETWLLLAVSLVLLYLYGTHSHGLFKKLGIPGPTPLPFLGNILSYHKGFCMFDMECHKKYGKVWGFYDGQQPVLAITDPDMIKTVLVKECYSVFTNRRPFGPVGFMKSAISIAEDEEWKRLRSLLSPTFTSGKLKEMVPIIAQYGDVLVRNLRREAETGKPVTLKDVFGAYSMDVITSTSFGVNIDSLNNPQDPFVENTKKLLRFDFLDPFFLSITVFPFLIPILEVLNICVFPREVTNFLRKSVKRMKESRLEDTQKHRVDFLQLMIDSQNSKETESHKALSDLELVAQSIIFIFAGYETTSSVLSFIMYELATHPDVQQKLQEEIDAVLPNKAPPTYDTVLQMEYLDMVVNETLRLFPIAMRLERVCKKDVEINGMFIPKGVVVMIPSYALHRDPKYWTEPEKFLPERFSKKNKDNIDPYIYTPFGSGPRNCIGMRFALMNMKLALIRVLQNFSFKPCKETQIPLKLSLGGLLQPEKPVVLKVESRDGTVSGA
Protocol: as §1

CYP106A2, sequence (Q06069 whole entry): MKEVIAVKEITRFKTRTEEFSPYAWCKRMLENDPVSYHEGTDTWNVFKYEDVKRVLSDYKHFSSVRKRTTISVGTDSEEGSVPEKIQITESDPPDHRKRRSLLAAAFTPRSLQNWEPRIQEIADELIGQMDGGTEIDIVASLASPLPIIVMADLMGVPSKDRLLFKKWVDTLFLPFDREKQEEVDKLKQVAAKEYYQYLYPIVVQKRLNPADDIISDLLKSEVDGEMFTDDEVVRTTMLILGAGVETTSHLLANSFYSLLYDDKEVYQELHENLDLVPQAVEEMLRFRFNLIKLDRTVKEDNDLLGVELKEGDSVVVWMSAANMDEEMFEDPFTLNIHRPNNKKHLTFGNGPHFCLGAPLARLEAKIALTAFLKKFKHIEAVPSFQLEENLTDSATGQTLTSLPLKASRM

SMILES | difference spectrum increase / λmax on binding to CYP106A2 (CYP106A2) [nm] | Soret peak after titration (heme spectral shift from 417 nm water-bound) (CYP17A1 [1]) [nm] | spectral response / binding mode on CYP106A2 (CYP106A2) | other results
[C-]#[N+][C@H]1CC[C@H]2[C@@H]3CC=C4C[C@@H](OC=O)CC[C@]4(C)[C@H]3CC[C@]12C [Compound 3] | 393 | – | – | –
[C-]#[N+][C@H]1CC[C@H]2[C@@H]3CC[C@H]4C[C@@H](OC=O)CC[C@]4(C)[C@H]3CC[C@]12C [Compound 2] | 393 | 420 | weak type I (substrate-like) blue shift | –
C[C@]12CC[C@H](O)CC1=CC[C@@H]1[C@@H]2CC[C@]2(C)C(c3cccnc3)=CC[C@@H]12 [abiraterone] | – | 424 | – | pKd (CYP17A1 [1]; protein 200 nM, 95% CI undefined to 3.8 nM, read-out: dissociation constant estimate (tight binding equation fit)): 10.36; slope of the inhibition curve (CYP17A1 [2]; CYP17A1 progesterone hydroxylation): 1.1; IC50 fold lower than for 1 (CYP17A1 [2]; abiraterone versus 1): 27 fold; pIC50 (CYP17A1 [2]; triplicate, four-parameter variable-slope fit, read-out: IC50, CYP17A1 progesterone hydroxylation): 7.33
[C-]#[N+]C1C=C2C[C@@H](OC=O)CC[C@]2(C)[C@H]2CC[C@]3(C)[C@@H]([N+]#[C-])CC[C@H]3[C@H]12 (stereo partly shown) [Compound 4] | 435 | – | does form an iron-isonitrile bond; also recorded: bind with the shift expected for Fe—CN—R bond formation | –
CC(=O)[C@H]1CC[C@H]2[C@@H]3CC[C@H]4C[C@@H](OC=O)CC[C@]4(C)[C@H]3CC[C@]12C [3β-formyl-5α-pregnanalone, reference compound] | – | – | – | Kd fold higher than 20-(R)-1 (CYP3A4; CYP3A4, parent steroid versus 20-(R)-1): ~ 20 fold; pKd (CYP3A4; protein 200 nM, 5 cm cuvette, tight-binding or quadratic equation, Fig. 4B: n = 3, 95% CI 120–215 nM, read-out: dissociation constant (Kd)): ~5.49

Source: paper PMC10475101, “Selective steroidogenic cytochrome P450 haem iron ligation by steroid-derived isonitriles” (Communications Chemistry, 2023)
